From patent publication US20050196492A1, “Food preservative method and system using vanillin and constituent having isothiocynate compound” (priority 2004, published 2005)

Legend:
Aspergillus niger [1] = assay: Combination of vanillin and VOM (AIT) in MRE package, growth grid; format: cell-based; settings: for growth of Aspergillus niger: Vanillin 0 ppm
Method: (§1) Four bread spoilage organisms were used in determining the inhibition properties of vanillin and VOM: (1) Penicillium notatum, (2) Rhizopus stolonifer, (3) Aspergillus niger and (4) Saccharomycopsis fibuligera. For purposes of this analysis, Wasaouro® was used as the source of VOM. The antimicrobial tests were conducted in MRE air-impermeable laminated packages without bread. Petri dishes containing the appropriate growth medium were inoculated with a selected spoilage organism and then sealed with various concentrations of vanillin and/or Wasaouro®. The vanillin was incorporated directly into the growth medium while the Wasaouro® was kept separate from the organism within the MRE package. […] Wasaouro® was effective at low headspace concentrations (e.g. 17 μg/L (AIT)) with the exception of Rhizopus stolonifer which is resistant to AIT even at much higher concentrations.
Next, both antimicrobial agents were tested against two of the more resistant organisms, Rhizopus stolonifer and Aspergillus niger.

[2] = system: Rhizopusus stolonifer and Aspergillus niger; assay: Combination of vanillin and VOM (AIT) in MRE package, growth grid, both fungi; format: cell-based, Rhizopus stolonifer and Aspergillus niger; settings: Vanillin 0 ppm
Method: as §1

Penicillium notatum = assay: Antimicrobial properties of VOM (Wasaouro vapor) alone in MRE package, growth/no growth; format: cell-based; settings: AIT by gas chromatography at time zero, 25° C., seven days
Method: (§2) Similarly, the antimicrobial properties of VOM (without vanillin) were evaluated against the four organisms shown in Table I. In order to evaluate the antimicrobial properties of VOM against each of these foregoing organisms, the modeling system employed several MRE packages. Each MRE package contained two Petri dishes. One Petri dish, 100 mm×15 mm, contained a medium and a selected organism. […] The cellulose filter pad for each 60 mm×15 mm Petri dish received a measured quantity of Wasaouro®. A stock solution of Wasaouro® powder was made and volumes of 100, 200, 400, 600, 800 and 1000 μl were added respectively to the filter pads of the 60 mm×15 mm Petri dishes for each group. […] The amount of the volatile active component of Wasaouro®, allyl isothiocyanate, was determined using gas chromatography. Each Petri dish in the first group was inoculated with Penicillium notatum, inoculum 10^5 spores/ml. Each Petri dish in the first group was then uncovered and placed in its own MRE impermeable laminated package. Similarly, each Petri dish in the second group of Petri dishes was inoculated with Rhizopus stolonifer, inoculum 10^5 spores/ml. Each Petri dish in the second group was then uncovered and then placed in its own MRE impermeable laminated package. In a similar manner, each Petri dish in the third group of Petri dishes was inoculated with Aspergillus niger, inoculum 10^5 spores/ml. Each Petri dish in the third group was then uncovered and then placed in its own MRE impermeable laminated package. Similarly, each Petri dish in the fourth group of Petri dishes was inoculated with Saccharomycopsis fibuligera, inoculum 10^5 spores/ml. Each Petri dish in the fourth group was then uncovered and then placed in its own MRE impermeable laminated package. All MRE packages (for all groups of Petri dishes) were then incubated at 25° C. for seven days. The determination of effectiveness of VOM as an antimicrobial agent was based on a growth or no growth basis. Petri dishes with no growth were left out for seven days after removal from the MRE package to ensure that there was no additional growth. For each experiment, a set of control MRE packages were made with the various concentrations of Wasaouro®. These control packages were used to extrapolate the relative amounts of allyl isothiocyanate in the experimental MRE packages at time zero.

Aspergillus niger [3] = assay: as above; format: cell-based; settings: AIT by gas chromatography at time zero, 25° C., seven days
Method: as §2

[4] = system: Saccharomycopsis fibuligera; assay: as above; format: cell-based; settings: AIT by gas chromatography at time zero, 25° C., seven days
Method: as §2

Rhizopus stolonifer = assay: as above; format: cell-based
Method: as §2

Rhizopusus stolonifer = assay: Combination of vanillin and VOM (AIT) in MRE package, growth grid; format: cell-based, Rhizopus stolonifer; settings: Vanillin 0 ppm
Method: as §1

SMILES: C=CCN=C=S [AIT, allyl isothiocyanate]
- sensitivity of Aspergillus niger to AIT (Aspergillus niger [1]): very sensitive
- growth of Aspergillus niger (Aspergillus niger [1]; AIT 55 ug/L): Growth
- growth of Aspergillus niger (Aspergillus niger [1]; AIT 145 ug/L): N/G
- growth of Aspergillus niger (Aspergillus niger [1]; AIT 150 ug/L): Growth
- growth of Aspergillus niger (Aspergillus niger [1]; AIT 420 ug/L): N/G
- growth of Aspergillus niger (Aspergillus niger [1]; AIT 465 ug/L): N/G
- growth of Aspergillus niger (Aspergillus niger [1]; AIT 905 ug/L): N/G
- growth of Rhizopusus stolonifer and Aspergillus niger ([2]; AIT 55 ug/L): Growth
- growth of Rhizopusus stolonifer and Aspergillus niger ([2]; AIT 145 ug/L): Growth
- growth of Rhizopusus stolonifer and Aspergillus niger ([2]; AIT 150 ug/L): Growth
- growth of Rhizopusus stolonifer and Aspergillus niger ([2]; AIT 420 ug/L): Growth
- growth of Rhizopusus stolonifer and Aspergillus niger ([2]; AIT 465 ug/L): Growth
- growth of Rhizopusus stolonifer and Aspergillus niger ([2]; AIT 905 ug/L): Growth
- Effective Amount Of Allyl Isothiocyanate (Penicillium notatum): ˜17 ppm
- Effective Amount Of Allyl Isothiocyanate (Aspergillus niger [3]): ˜17 ppm
- Effective Amount Of Allyl Isothiocyanate [4]: ˜8 ppm
- Effective Amount Of Allyl Isothiocyanate (Rhizopus stolonifer; Wasaouro vapor in MRE package, AIT by gas chromatography at time zero, 25° C., seven days): >470 ppm
- susceptibility of Rhizopus stolonifer to AIT (Rhizopus stolonifer; even at much higher concentrations than 17 μg/L): resistant
- growth of Rhizopusus stolonifer (Rhizopusus stolonifer; AIT 55 ug/L): Growth
- growth of Rhizopusus stolonifer (Rhizopusus stolonifer; AIT 145 ug/L): Growth
- growth of Rhizopusus stolonifer (Rhizopusus stolonifer; AIT 150 ug/L): Growth
- growth of Rhizopusus stolonifer (Rhizopusus stolonifer; AIT 420 ug/L): Growth
- growth of Rhizopusus stolonifer (Rhizopusus stolonifer; AIT 465 ug/L): Growth
- growth of Rhizopusus stolonifer (Rhizopusus stolonifer; AIT 905 ug/L): Growth
